Key:
Format in all cases: in vivo
rats = test: Hypercalcemic response to a single SC injection in rats; settings: single SC injection 340 nmol/kg
Experimental: (See FIG. 10.) In an aged OVX rat model of osteoporosis, twice weekly dosing was able to reverse more than 50% of the bone loss induced by one year of estrogen ablation. The effect seen in the aged rat model was even greater when combined with a bisphosphonate (APD). In rats, a single SC injection of PTH-(1-34)-Fc (340 nmol/kg) caused a hypercalcemic response which persisted for 72 hours (FIG. 8). This duration is concordant with the rate of clearance of PTH-(1-34)-Fc from the serum, and is consistent with an optimal twice-weekly dosing regimen in rats.

mice [1] = test: Mouse bioassay: SC injection days 0, 5, 10; clinical chemistry (calcium, AP, TRAP) and tibial pQCT
Experimental: Peripheral blood was obtained daily for 3 days following single subcutaneous injections of the indicated compounds.
Peripheral quantitative computed tomography (pQCT) was performed on the proximal tibial metaphysis of mice on day 15, after injections of PTH constructs on day 0, 5 and 10.
We then tested the effects of PTH-(1-34), PTH-(1-34)-Fc, PTH-(1-31)-Fc and PTH-(1-30)-Fc in mice. Four week old male mice were injected on days 0, 5, and 10 with vehicle or with PTH fragments, by SC injection. Peripheral blood was obtained for clinical chemistry at 24, 48, and 72 h. Mice were killed on day 15, vertebrae, tibiae and femurs were harvested for histology and one tibia was collected for bone density measurements (peripheral quantitative computed tomography, pQCT). Clinical chemistry endpoints included total serum calcium, serum alkaline phosphatase (AP, a marker of osteoblast activity), and serum tartrate-resistant acid phosphatase (TRAP, a marker of osteoclast activity). For each animal, the ratio of AP:TRAP was calculated as an index of relative osteoblast activity compared to osteoclast activity. A higher AP:TRAP ratio would indicate a potentially more anabolic agent.

OVX cynomolgus monkeys = test: Single subcutaneous injection into OVX cynomolgus monkeys, serum total calcium
Experimental: Monkeys were injected with PTH-(1-34)-Fc at doses of 1-30 μg/kg (n=1/group) or 100-1000 μg/kg (n=2/group). Serum was analyzed for total calcium. The dotted line indicates the threshold for hypercalcemia, based on an elevation of calcium greater than three standard deviations above the normal mean, on two or more consecutive timepoints.
The optimal dosing of primates may be less frequent compared to rats or mice. Weekly (or less frequent) dosing may be optimal in primates, based on the observation that the hypercalcemic response of OVX cynomolgus monkeys to a single subcutaneous injection of PTH-(1-34)-Fc (10-34 nmol/kg) persisted for about 168 hours (FIG. 11).

mice [2] = test: Chronic hypercalcemia induced by PTH-(1-34)-Fc challenge, antagonist given SC; settings: 30 mg/kg single SC, 24 h post challenge, vehicle-treated normal mice (normal control 1.35); the values are: blood ionized calcium
Experimental: Normal male mice were challenged once by SC injection with PTH-(1-34)-Fc (30 mg/kg) (open circles), or with vehicle (PBS, open squares). Some PTH-(1-34)-Fc-challenged mice were treated once, at the time of challenge, with [Asn10,Leu11]PTHrP-(7-34)-Fc at 10 (closed triangle), 30 (closed circle), or 100 mg/kg (closed square). […] Data represent means±SEM, n=5 mice/group.
In order to test the ability of [Asn10,Leu11]PTHrP-(7-34)-Fc to antagonize more chronic hypercalcemia, we used PTH-(1-34)-Fc as a long-acting calcemic agent. This study also represents a model for primary and secondary hyperparathyroidism, diseases which are characterized by persistent elevation of PTH levels. In vehicle-treated mice, a single SC injection of PTH-(1-34)-Fc (30 mg/kg) caused a robust hypercalcemic response in normal mice, reaching a level of 2.75 mg/dl at 24 h post challenge (vs. normal control value of 1.35).

Sprague Dawley (SD) rats = test: Anabolic assay: lumbar (L3) BMD by DEXA, PTH constructs with or without OPG-Fc; settings: 6-month-old male SD rats, DEXA Day 7; OPG-Fc 1 mg/kg once; PTH-(1-34) 20 nMoles/kg x3; PTH-(1-34)-Fc 60 nMoles/kg once
Experimental: Briefly, 6-month-old male Sprague Dawley (SD) rats were divided into groups of 6. Baseline bone mineral density (BMD) was determined in the third lumbar vertebra (L3) of all rats by dual-energy X-ray absorptiometry (DEXA) (Day 0). Rats were then treated according to the following schedule:
Group 1: Vehicle controls (PBS, injected SC, Days 1, 3, and 5)
Group 2: OPG-Fc, single SC injection (1 mg/kg) on Day 1
Group 3: PTH-(1-34), SC injections on Days 1, 3, and 5, at 20 nMoles PTH/kg/injection. This represents an optimal anabolic PTH regimen.
Group 4: Same as group 3, but with a single OPG-Fc injection on Day 1.
Group 5: Single SC injection of PTH-(1-34)-Fc at 60 nMoles/kg, on Day 1. This represents a molar dose which is equivalent to the total dose of PTH-(1-34) received by group 3, but in a single injection.
Group 6: Same as group 5, but with a single OPG-Fc injection (SC, 1 mg/kg) on Day 1.
DEXA of the lumbar spine was performed again on Day 7 to evaluate changes in BMD. […] The anabolic effect of a single treatment with PTH-(1-34)-Fc plus OPG-Fc was greater than that induced by multiple injections of PTH-(1-34), with or without OPG-Fc co-treatment.
Normal 6 month old male rats were treated with PTH-Fc or PTH or vehicle by a single SC injection. Some rats also received a single SC injection of OPG. BMD was determined 7 days later by DEXA. Data represent means+SD, N=6 rats/group.

## PTH-(1-34)-Fc: human PTH-(1-34), SVSEIQLMHNLGKHLNSMERVEWLRKKLQDVHNF, linked at its C-terminus to an Fc domain
rats
  persistence of hypercalcemic response: 72 h
Mice [1]; 300 nmoles/kg
  calculated AP:TRAP ratio: increased over time
Mice [1]; 300 nmoles/kg (given for PTH-(1-34)-Fc), 72 h
  serum AP (osteoblast marker): significantly elevated
Mice [1]; 300 nmoles/kg SC
  time of peak serum calcium: 24 h
Mice [1]; 300 nmoles/kg SC (equimolar), 24, 48, 72 h
  serum calcium: dramatic and sustained increase
Mice [1]; 300 nmoles/kg on day 0, 5, 10, pQCT day 15
  bone mineral density (proximal tibial metaphysis): no effect
Mice [1]; mice, after single SC injection
  serum TRAP (osteoclast marker): not significantly changed
OVX cynomolgus monkeys; primates, inferred from calcemic response
  time within which a single subcutaneous dose is cleared: ≤ 1 week
OVX cynomolgus monkeys; single subcutaneous injection 10-34 nmol/kg
  persistence of hypercalcemic response: about 168 hours
Mice [2]
  level reached in hypercalcemic response: 2.75 mM
Sprague Dawley (SD) rats
  BMD in L3 compared to PBS-treated rats: failed to increase BMD

— patent US6756480B2, “Modulators of receptors for parathyroid hormone and parathyroid hormone-related protein” (Amgen Inc., priority 2000, dated 2004)
